What was measured:
dendritic cells = test: Activation of dendritic cells (CD40, CD83, CD80, CD86 flow cytometry); format: cell-based, human; conditions: LCC-12 10 μM, 24 h, LPS; FIG. 6E
Method: Dendritic cells. Peripheral blood samples were collected from healthy donors (Etablissement Français du Sang). Pan monocytes were isolated by negative magnetic sorting using microbeads according to the manufacturer's instructions (Miltenyi Biotec, 130-096-537), and cultured in RPMI 1640 supplemented with glutamine, 10% fetal bovine serum and treated with granulocyte-macrophage colony-stimulating factor (GM-CSF, 100 ng/mL) and IL-4 (10 ng/mL) to induce differentiation into dendritic cells (DC). At day 5 of differentiation, DC were treated with lipopolysaccharides (LPS, 100 ng/mL, 24 h) to generate activated DC and were co-treated with LCC-12 (in-house, 10 μM, 24 h). The activation status of the dendritic cells was assessed by measuring CD40, CD83, CD80 and CD86 surface markers by flow cytometry.

Maximum tolerated dose = conditions: stated relative to the 0.3 mg/kg/day dose used
[1] = tested on: biopsy-derived organoids of PDAC; test: Chemograms on biopsy-derived organoids of pancreatic ductal adenocarcinoma; format: cell-based, human; conditions: 72 h, CellTiter-Glo 3D; FIG. 9
Description: Biopsy-derived pancreatic organoid (BDPO) generation. BDPOs were obtained from endoscopic ultrasound-guided fine-needle aspirations (EUS-FNA) from patients with PDAC included under the PaCaOmics clinical trial (ClinicalTrials.gov: NCT01692873) after approval by the Paoli-Calmettes hospital ethics committee and following patient informed consent. Cultures were established as previously described. Briefly, PDAC biopsies were slightly digested with the Tumor Dissociation Kit (Miltenyi Biotec) at 37° C. for 5 minutes. The pancreatic tissue slurry was transferred into a tissue strainer 100 μm and was placed into 12-well plates coated with 150 μL GFR matrigel (Corning, Boulogne-Billancourt, France). […]
Chemograms on BDPO. […] 24 hours later, one plate was used directly for RNA preparation (Time 0 transcriptome) and on the other the medium was supplemented with increasing concentrations of each drug, 72 hours later cell viability was measured with CellTiter-Glo 3D (Promega) reagent quantified using the plate reader Tristar LB941 (Berthold Technologies). Values were normalized and expressed as the percentage of the control (vehicle), which represents 100% of normalized fluorescence. […]

HMLER CD44^high/CD24^low = test: Cell viability assay (CellTiter-Blue) on breast cancer stem cell model HMLER CD44high/CD24low; format: cell-based, human
Method: Cell viability assay (IC50). Cell viability assay was carried out by plating 1000 cells/well in 96-well plates. Cells were treated for 72 h in a range between to 25 nM and […] using serial dilutions. The inventors followed the manufacturer's protocol. In brief, CellTiter-Blue® reagent (G8081, Promega) was added after 72 h treatment and cells were incubated for 3 h before recording fluorescence intensities (λex. 560/20 nm; λem. 590/10 nm) using a Perkin Elmer Wallac 1420 Victor2 Microplate Reader.
Cell culture. MCF7 (ATCC) cells, DU-145 (ATCC) cells and FC1245 cells were cultured in Dulbecco's Modified Eagle Medium GlutaMAX (DMEM, ThermoFisher Scientific, 61965059) supplemented with 10% Fetal Bovine Serum (FBS, Gibco, 10270-106) and Penicillin-Streptomycin mixture (BioWhittaker/Lonza, DE17-602E) unless stated otherwise. Primary lung circulating tumor cells (Celprogen, 36107-34CTC, Lot 219411) were grown using stem cell complete media (Celprogen, M36102-29PS) until the third passage. Circulating cancer cells were grown in stem cell ECM T75-flasks (Celprogen, E36102-29-T75) and ECM 6-well plates (Celprogen, E36102-29-6Well). HMLER cells ([…]) naturally repressing E-cadherin, obtained from human mammary epithelial cells infected with a retrovirus carrying hTERT, SV40 and the oncogenic allele H-rasV12, and HMLER CD44 and TFRC ko clones were cultured in DMEM/F12 (Thermo Fisher Scientific, 31331093) supplemented with 10% FBS (Thermo Fisher Scientific, 10270106), 10 μg/mL insulin (Sigma-Aldrich, 10516), 0.5 μg/mL hydrocortisone (Sigma-Aldrich, H0888) and 0.5 μg/mL puromycin (Life Technologies, A11138-02), unless stated otherwise. HMLER CD44^high cells were also supplemented with 10 ng/mL EGF (Miltenyi Biotech, 130-097-750).

Structure (SMILES): N=C(N)NC(=N)NCCCCCCCCCCCCNC(=N)NC(=N)N [LCC-12, lipophilic copper clamp C12]
- activation of dendritic cells (dendritic cells): decreases the activation
- maximum tolerated dose (MTD) (Maximum tolerated dose): 0.3 mg/kg/day, a dose 10 times lower than the maximum tolerated dose
- efficacy (IC50) on biopsy-derived organoids of PDAC [1]: low micromolar range
- improved IC50 compared with metformin (HMLER CD44^high/CD24^low; HMLER CD44high/CD24low): more than 2800 fold
- IC50 (HMLER CD44^high/CD24^low; Homo sapiens, cell viability, 72 h treatment, read-out: IC50 against HMLER CD44^high/CD24^low): 8 µM

Source: US20230416196A1, “DIMER OF BIGUANIDINES AND THEIR THERAPEUTIC USES” (INSTITUT CURIE, priority 2020, published 2023)
